In patent publication US20240317744A1, “Bicyclic Ureas As Kinase Inhibitors” (Incyte Corporation, priority 2023, published 2024):

Key:
[1] = biological target: catalytic domain (JH1, amino acids 808-1132) of human JAK2 (Homo sapiens, UniProt O60674); test: JAK2 HTRF Enzyme Activity Assay; assay type: biochemical; details: ATP 30 µM, 60 minutes at 25° C.; read-out: V617F ENZ 30 UM
[2] = biological target: T1, pseudo-kinase domain (JH2, amino-acids 536-812) of human V617F mutant JAK2 (Homo sapiens, UniProt O60674, F794H/V617F/W659A/W777A); test: JAK2 LanthaScreen JH2-V617F Binding Assay; details: JAK2 JH2-V617F 0.26 nM, 50 nM tracer, 1 hour at 25° C.; read-out: JH2 BIND V617F
T1 construct: pseudo-kinase domain (JH2, amino-acids 536-812 with 3 surface mutations W659A, W777A, F794H); His (C); purchased BPS Bioscience 79498; host or cells: baculovirus expression system
T1 sequence (O60674 536-812 V617F/W659A/W777A/F794H): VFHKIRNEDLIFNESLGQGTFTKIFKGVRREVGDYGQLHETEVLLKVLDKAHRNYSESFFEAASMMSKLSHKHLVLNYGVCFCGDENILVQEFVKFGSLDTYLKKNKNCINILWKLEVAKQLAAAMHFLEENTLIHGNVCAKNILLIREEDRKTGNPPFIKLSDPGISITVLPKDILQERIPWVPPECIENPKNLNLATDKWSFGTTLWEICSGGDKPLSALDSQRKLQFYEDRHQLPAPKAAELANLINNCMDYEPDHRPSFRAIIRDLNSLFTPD
Procedure, shortened: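 Biotinylated His-Avi-tagged JH2 protein was baculovirus-expressed and used at 0.26 nM. It was incubated with compound, 50 nM fluorescent JH2 tracer and 0.25 nM streptavidin-Tb for 1 h at 25 °C in pH 7.5 Tris buffer with MgCl2, BSA, DTT. Non-specific binding was defined with 2 mM ATP. IC50 came from four-parameter fits of TR-FRET signal.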

Sequence of catalytic domain (JH1, amino acids 808-1132) of human JAK2 (O60674 808-1132 limits assumed): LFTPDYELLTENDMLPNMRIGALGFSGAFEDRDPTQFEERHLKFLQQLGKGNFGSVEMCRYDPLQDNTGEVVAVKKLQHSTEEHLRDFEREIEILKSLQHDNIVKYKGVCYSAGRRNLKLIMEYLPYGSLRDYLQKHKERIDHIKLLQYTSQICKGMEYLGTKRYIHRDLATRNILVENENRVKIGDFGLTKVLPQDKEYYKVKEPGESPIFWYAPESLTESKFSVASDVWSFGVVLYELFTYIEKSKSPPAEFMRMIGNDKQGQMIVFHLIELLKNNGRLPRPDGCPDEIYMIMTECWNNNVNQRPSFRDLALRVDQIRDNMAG

## [2H]C([2H])([2H])n1c(=O)n([C@@H]2CC[C@@]([2H])(NC(=O)OC)C2)c2cc(Nc3cc(C4CCN(C)CC4)cc(-c4ncc(C(C)(C)O)s4)n3)ncc21 [Example 166, Methyl ((1R,3R)-3-(6-((6-(5-(2-hydroxypropan-2-yl)thiazol-2-yl)-4-(1-methylpiperidin-4-yl)pyridin-2-yl)amino)-3-(methyl-d3)-2-oxo-2,3-dihydro-1H-imidazo[4,5-c]pyridin-1-yl)cyclopentyl-1-d)carbamate]
[1]
  IC50: > 1000 nM
[2]
  IC50: ≤ 10 nM

## [2H]C1(NC(=O)OC)CC[C@@H](n2c(=O)n(C([2H])([2H])[2H])c3cnc(Nc4ccc5nn(CC6(C#N)CC6)c(-c6cnn(C(F)(F)F)c6)c5n4)cc32)C1 (stereo partly drawn) [Example 134, Methyl ((3R)-3-(6-((2-((1-cyanocyclopropyl)methyl)-3-(1-(trifluoromethyl)-1H-pyrazol-4-yl)-2H-pyrazolo[4,3-b]pyridin-5-yl)amino)-3-(methyl-d3)-2-oxo-2,3-dihydro-1H-imidazo[4,5-c]pyridin-1-yl)cyclopentyl-1-d)carbamate]
[1]
  IC50: > 1000 nM
[2]
  IC50: ≤ 10 nM

## [2H]C([2H])([2H])n1c(=O)n([C@@H]2CC[C@@]([2H])(NC(=O)OC)C2)c2cc(Nc3cc(C)c(F)c(-c4ncc(C(C)(C)O)s4)n3)ncc21 [Example 149, Methyl ((1R,3R)-3-(6-((5-fluoro-6-(5-(2-hydroxypropan-2-yl)thiazol-2-yl)-4-methylpyridin-2-yl)amino)-3-(methyl-d3)-2-oxo-2,3-dihydro-1H-imidazo[4,5-c]pyridin-1-yl)cyclopentyl-1-d)carbamate]
[1]
  IC50: > 1000 nM
[2]
  IC50: ≤ 10 nM

## [2H]C([2H])([2H])n1c(=O)n([C@@H]2CC[C@](C)(NC(=O)C3CC3)C2)c2cc(Nc3ccc4nn([C@H]5C[C@@H](O)C5)c(-c5cnn(C(F)(F)F)c5)c4n3)ncc21 [Example 121, N-((1S,3R)-3-(6-((2-((1s,3s)-3-Hydroxycyclobutyl)-3-(1-(trifluoromethyl)-1H-pyrazol-4-yl)-2H-pyrazolo[4,3-b]pyridin-5-yl)amino)-3-(methyl-d3)-2-oxo-2,3-dihydro-1H-imidazo[4,5-c]pyridin-1-yl)-1-methylcyclopentyl)cyclopropanecarboxamide]
[1]
  IC50: > 1000 nM
[2]
  IC50: ≤ 10 nM

## [2H]C([2H])([2H])n1c(=O)n([C@@H]2CC[C@@H](NC(=O)OC)C2)c2cc(Nc3cc(C4CCOCC4)cc(-c4ncc(C(C)(C)O)s4)n3)ncc21 [Example 161, Methyl ((1R,3R)-3-(6-((6-(5-(2-hydroxypropan-2-yl)thiazol-2-yl)-4-(tetrahydro-2H-pyran-4-yl)pyridin-2-yl)amino)-3-(methyl-d3)-2-oxo-2,3-dihydro-1H-imidazo[4,5-c]pyridin-1-yl)cyclopentyl)carbamate]
[1]
  IC50: > 1000 nM
[2]
  IC50: ≤ 10 nM

## [2H]C([2H])([2H])n1c(=O)n([C@@H]2CC[C@](C)(NC(C)=O)C2)c2cc(Nc3cc(C(C)(C)O)cc(-c4ncc(Cl)s4)n3)ncc21 [Example 136, N-((1S,3R)-3-(6-((6-(5-Chlorothiazol-2-yl)-4-(2-hydroxypropan-2-yl)pyridin-2-yl)amino)-3-(methyl-d3)-2-oxo-2,3-dihydro-1H-imidazo[4,5-c]pyridin-1-yl)-1-methylcyclopentyl)acetamide]
[1]
  IC50: > 1000 nM
[2]
  IC50: ≤ 10 nM

## [2H]C([2H])([2H])n1c(=O)n([C@@H]2CC[C@@]([2H])(NC(=O)OC)C2)c2cc(Nc3cc(C4CCOCC4)cc(-c4ncc(C(C)(C)O)s4)n3)ncc21 [Example 162, Methyl ((1R,3R)-3-(6-((6-(5-(2-hydroxypropan-2-yl)thiazol-2-yl)-4-(tetrahydro-2H-pyran-4-yl)pyridin-2-yl)amino)-3-(methyl-d3)-2-oxo-2,3-dihydro-1H-imidazo[4,5-c]pyridin-1-yl)cyclopentyl-1-d)carbamate]
[1]
  IC50: > 1000 nM
[2]
  IC50: ≤ 10 nM

## [2H]C([2H])([2H])n1c(=O)n([C@H]2CC[C@@](C)(NC(=O)C3CC3)CC2)c2cc(Nc3ccc4c(n3)c(-c3cnn(C(F)(F)F)c3)nn4[C@H]3CC[C@H](O)CC3)ncc21 [Example 126, N-((1s,4s)-4-(6-((1-((1r,4r)-4-Hydroxycyclohexyl)-3-(1-(trifluoromethyl)-1H-pyrazol-4-yl)-1H-pyrazolo[4,3-b]pyridin-5-yl)amino)-3-(methyl-d3)-2-oxo-2,3-dihydro-1H-imidazo[4,5-c]pyridin-1-yl)-1-methylcyclohexyl)cyclopropanecarboxamide]
[1]
  IC50: > 1000 nM
[2]
  IC50: ≤ 10 nM

## [2H]C([2H])([2H])n1c(=O)n([C@@H]2CC[C@](C)(NC(C)=O)C2)c2cc(Nc3cc(C(C)(C)O)cc(-c4cnc(OCC)s4)n3)ncc21 [Example 153, N-((1S,3R)-3-(6-((6-(2-Ethoxythiazol-5-yl)-4-(2-hydroxypropan-2-yl)pyridin-2-yl)amino)-3-(methyl-d3)-2-oxo-2,3-dihydro-1H-imidazo[4,5-c]pyridin-1-yl)-1-methylcyclopentyl)acetamide]
[1]
  IC50: > 1000 nM
[2]
  IC50: ≤ 10 nM
